This is an account of results in ChEMBL document CHEMBL1151282, “Flavonoids and benzene derivatives from the flowers and fruit of Tetrapanax papyriferus” (J Nat Prod, 2005).

One may read the LC50 as the concentration that kills 50% of the test population. Lower therefore signals greater toxicity.

Structures are written as SMILES.

The nature of the data set: Toxicity in brine shrimp after 24 hrs. Format: organism-based. The note with it: artemia, in vivo.

In turn, `C[C@@H]1O[C@@H](Oc2cc(O)c3c(=O)c(O)c(-c4ccc(O)cc4)oc3c2)[C@H](OC(=O)/C=C/c2ccc(O)cc2)[C@H](OC(=O)/C=C/c2ccc(O)cc2)[C@H]1O` showed an LC50 at 24 h of 400 µM. As for `C[C@@H]1O[C@@H](Oc2cc(O)c3c(=O)c(O)c(-c4ccc(O)cc4)oc3c2)[C@H](OC(=O)/C=C/c2ccc(O)cc2)[C@H](O)[C@H]1O`, the figure is 570 µM; as for `CC(=O)Oc1ccc(-c2oc3cc(OC(C)=O)cc(O)c3c(=O)c2OC(C)=O)cc1`, 2210 µM.
